Measured values as given in publication PMC3156385 (Chemical research in toxicology, 2011).

How the values were obtained:
rabbit liver P450 1A2 = target: T1, rabbit liver P450 1A2 (Oryctolagus cuniculus, UniProt P00187); format: binding
T1 sequence (P00187 1-516): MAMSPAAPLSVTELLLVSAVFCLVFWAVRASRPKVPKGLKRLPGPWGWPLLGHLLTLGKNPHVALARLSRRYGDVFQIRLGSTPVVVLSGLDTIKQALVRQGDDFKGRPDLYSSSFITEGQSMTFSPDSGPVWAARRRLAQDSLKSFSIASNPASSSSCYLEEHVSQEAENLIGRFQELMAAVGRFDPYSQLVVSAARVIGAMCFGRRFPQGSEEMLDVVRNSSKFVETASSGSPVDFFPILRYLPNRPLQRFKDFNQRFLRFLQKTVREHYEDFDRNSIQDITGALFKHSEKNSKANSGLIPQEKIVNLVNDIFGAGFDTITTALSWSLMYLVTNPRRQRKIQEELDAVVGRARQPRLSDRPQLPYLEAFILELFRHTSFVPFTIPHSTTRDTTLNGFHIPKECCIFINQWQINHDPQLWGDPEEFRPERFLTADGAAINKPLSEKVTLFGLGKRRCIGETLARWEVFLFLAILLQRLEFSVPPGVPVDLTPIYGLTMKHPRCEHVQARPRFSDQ

P450 1A2 = target: T2, P450 1A2 (Homo sapiens, UniProt P05177); experiment: Inhibition of P450 1A2-dependent EROD activity; format: biochemical
T2 sequence (P05177 1-516): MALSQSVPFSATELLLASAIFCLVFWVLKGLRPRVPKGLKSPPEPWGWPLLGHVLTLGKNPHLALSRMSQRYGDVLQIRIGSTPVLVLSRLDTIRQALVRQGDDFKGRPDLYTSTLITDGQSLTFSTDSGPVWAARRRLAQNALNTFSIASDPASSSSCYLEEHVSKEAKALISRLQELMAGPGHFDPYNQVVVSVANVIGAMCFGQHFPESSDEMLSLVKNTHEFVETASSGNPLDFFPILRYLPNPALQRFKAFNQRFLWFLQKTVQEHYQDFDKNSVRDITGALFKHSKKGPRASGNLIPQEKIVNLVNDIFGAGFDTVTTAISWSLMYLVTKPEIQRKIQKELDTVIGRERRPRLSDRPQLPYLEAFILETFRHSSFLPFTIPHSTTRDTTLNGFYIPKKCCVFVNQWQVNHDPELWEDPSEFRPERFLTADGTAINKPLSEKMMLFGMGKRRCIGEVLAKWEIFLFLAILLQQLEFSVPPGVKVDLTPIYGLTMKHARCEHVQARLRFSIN

Question: `N#C[Se]Cc1ccccc1` [BSC, benzyl selenocyanate] was tested. Which Kd (rabbit liver P450 1A2) did it give?
Answer: 90 ± 29 µM

Question: What about the IC50 (P450 1A2) of the same compound?
Answer: 1.3 ± 0.22 µM
